Molecules are shown by their SMILES.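 Where inhibition never reached the appropriate level, the endpoint shown equals the highest concentration tested. Otherwise, values were interpolated linearly from a five-concentration, 48-hour dose response in 96-well plates. Abbreviation: GI50, concentration required for 50% inhibition of growth. TGI denotes the concentration required for complete inhibition of growth.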

Among the data in PubChem BioAssay (NCI) are GI50 and TGI values, retold here.

Assay in all cases: DTP human tumour cell line panel, 48 h
The subject of assay [1] is SK-MEL-5 melanoma.
In assay [2] the test system is A498 renal.
For assay [3], the system named is HS 578T breast.
The subject of assay [4] is ACHN renal.
For assay [5], the system named is UACC-62 melanoma.
Assay [6] deals with OVCAR-3 ovarian.
The test system of assay [7] is HT29 colon.
Assay [8] relates to UACC-257 melanoma.
The subject of assay [9] is RPMI-8226 leukemia.
Assay [10] concerns SW-620 colon.

For `O=C(COc1cccc(/C=C2\COc3ccccc3C2=O)c1)c1ccccc1`, the GI50 in assay [1] was 2.83 µM; in assay [2] it was 0.266 µM; in assay [3], 2.34 µM; in assay [4], 2.14 µM; in assay [5], 3 µM; in assay [6], 2.39 µM. For the same compound, the GI50 is 2.04 µM in [7], 6.03 µM in assay [8], 1.84 µM in [9] and 1.66 µM in assay [10]. In addition, the total growth inhibition concentration (TGI) in [1] is 7.63 µM; in [2] it was 6.78 µM; in [3], over 100 µM; in assay [4], 5.18 µM; in assay [5], 10.2 µM; in assay [6] it was 5.12 µM. Further, the TGI was 4.5 µM in assay [7], 18.6 µM in [8], 4.85 µM in assay [9] and 3.83 µM in assay [10].
For `CON=C1C[C@]2(C[C@@H]3C[C@@H](C/C=C(\C)C[C@@H](C)/C=C/C=C4\CO[C@@H]5[C@H](O)C(C)=C[C@@H](C(=O)O3)[C@]45O)O2)O[C@H](/C(C)=C/C(C)C)[C@H]1C`, the GI50 is 15.4 µM in [1]; 10.5 µM in [2]; 16.6 µM in [3]; 15.2 µM in assay [4]; 14.4 µM in assay [5]; 4.45 µM in assay [6]. For the same compound, the GI50 in [7] was 11.1 µM; in [8], 16.9 µM; in [9], 4.23 µM; in assay [10], 11.8 µM. Further, the concentration for total growth inhibition (TGI) in assay [1] was 29.1 µM; in [2], 22.9 µM; in assay [3], 39.6 µM; in [4], 29.3 µM; in assay [5], 29.6 µM; in [6] it was 15.8 µM. Moreover, the TGI in [7] turned out to be 25.3 µM; in [8], 32.9 µM; in [9] it was 53.6 µM; in assay [10], 25.3 µM.
For the compound `COc1cc(N2CCN(C(C)C)CC2)ccc1Nc1nc(Nc2ccc(F)cc2C(=O)NCC(O)CO)c2cc[nH]c2n1` (stereo not given), the GI50 was 11.4 µM in [1]; 2.5 µM in assay [2]; 6.9 µM in [3]; over 25 µM in assay [4]; 9.87 µM in assay [5]; over 25 µM in assay [6]. The GI50 in assay [7] was 1.25 µM; in [8], 2.87 µM; in assay [9], 15 µM; in assay [10] it was 2.05 µM. Besides, the TGI in assay [1], in assay [2], in [3], in assay [4], in [5] and in assay [6] was over 25 µM in each case. The TGI in [7], in assay [8], in assay [9] and in assay [10] was over 25 µM throughout.
As to `[N-]=[N+]=NCCCn1c2c(c3ccc([N+](=O)[O-])cc3c1=O)C(=O)c1cc(I)ccc1-2`, the GI50 in [1] was 3.77 µM; in assay [2], 6.52 µM; in assay [3] it was 28 µM; in [4] it was 2.25 µM; in assay [5], 3.33 µM; in assay [6], 18.3 µM. In addition, the GI50 is 10.7 µM in assay [7], 26.7 µM in assay [8], 2.17 µM in assay [9] and 1.72 µM in [10]. Besides, the concentration for total growth inhibition (TGI) in assay [1] is 15.5 µM; in assay [2], 28.5 µM; in assay [3] it was over 100 µM; in [4] it was 7.5 µM; in assay [5], 18.3 µM; in [6], over 100 µM. Besides, the TGI in assay [7] is over 100 µM; in assay [8], over 100 µM; in assay [9], 59.6 µM; in assay [10], over 100 µM.
Regarding `CC1NC(C(=O)O)Cc2cc(O)c(O)cc21` (stereo not given), the TGI in assay [1], in assay [2], in [3], in [4], in assay [5] and in [6] was over 100 µM in each case. Also, the TGI in assay [7], in assay [8], in [9] and in assay [10] was over 100 µM in each case.
Take `CCCCCCCCCCCCNC(=O)N[C@H](C(=O)N[C@H]1/C=C/CCNC(=O)/C=C/[C@H](C)NC1=O)C(C)C`: the GI50 in assay [1] is 0.163 µM; in [2] it was 0.0649 µM; in assay [3], 0.333 µM; in assay [4], 1.87 µM; in [5], 0.0447 µM; in [6], 0.0566 µM. In addition, the GI50 in assay [7] is 0.0216 µM; in assay [8] it was 0.269 µM; in [9], 0.0309 µM; in [10] it was 0.0504 µM. Also, the concentration for total growth inhibition (TGI) is 0.39 µM in assay [1]; 0.362 µM in [2]; 24 µM in assay [3]; over 100 µM in [4]; 0.168 µM in [5]; 0.935 µM in assay [6]. In addition, the total growth inhibition concentration (TGI) was 0.331 µM in assay [7], 1.85 µM in assay [8], 1 µM in [9] and 1.34 µM in assay [10].
As to `Cc1ccc(S(=O)(=O)OCC(=O)Nc2ccc(C(=O)O)c(O)c2)cc1`, the GI50 in assay [1] is 27 µM; in [2], 36.4 µM; in assay [3] it was 20.3 µM; in [4] it was 43.1 µM; in assay [5] it was 20.9 µM; in [6], 19.3 µM. The GI50 was 38.6 µM in assay [7], 36.7 µM in assay [8], 138 µM in assay [9] and 43.7 µM in [10]. The TGI in assay [1] was determined as 82.6 µM; in assay [2], 105 µM; in assay [3], 61.8 µM; in assay [4], 159 µM; in assay [5] it was 61.4 µM; in [6], 44.5 µM. For the same compound, the total growth inhibition concentration (TGI) in assay [7] is 172 µM; in assay [8], 200 µM; in [9], 346 µM; in assay [10], 145 µM.

As a reminder, the GI50 is the concentration at which growth is held to half of that of the control. A word on the TGI: it is the concentration giving total growth inhibition. Lower therefore signals greater sensitivity of the cells.
